Source: article PMC6701825, “Antiproliferative and Antimigratory Effects of a Novel YAP–TEAD Interaction Inhibitor Identified Using in Silico Molecular Docking” (Journal of Medicinal Chemistry, 2019)

What was measured:
[1] = target: T1, TEAD3 (Homo sapiens, UniProt Q99594); assay: GAL4-TEAD3 fusion / 5xGAL4-secNLUC reporter in HeLa cells; format: cell-based; details: 100 μM, 6 h
T1 construct: #18881 (FLAG-YAP); host or cells: HeLa
From the text: (§1) TEAD proteins (TEAD1–4) display a high degree of sequence conservation in residues that create the hydrophobic pocket that is essential for YAP binding.[51] YAP proteins also display a high degree of conservation in residues that interact with this pocket.[51] We therefore tested whether CPD3.1 was able to inhibit YAP-induced activity of TEAD1, TEAD2, TEAD3, and TEAD4. To quantify the effect of CPD3.1 on the activity of each individual TEAD paralog, while excluding interference from endogenously expressed TEAD1–4 proteins, we expressed each TEAD paralog (TEAD1–4) fused to the yeast GAL4 DNA-binding domain. Cells were transfected with the GAL4–TEAD expression vector together with a secreted nanoluciferase reporter gene vector under control of a promoter containing five GAL4 DNA-binding elements. This system allows us to study the effect of CPD3.1 on the activity of each individual TEAD protein in isolation, without interference from endogenously expressed transcription factors. In addition, the cells were co-transfected with a YAP expression vector to activate the GAL4–TEAD fusion-dependent transcription (see Supplement Figure 9). Basal activities of TEAD1, TEAD2, TEAD3, and TEAD4 were inhibited by CPD3.1 (Figure 7A–D). […]
(§2) Figure 7 Compound 3.1 inhibits TEAD1, TEAD2, TEAD3, and TEAD4 activities. […] Secreted nano-luciferase activity was quantified in the conditioned media. […]

[2] = target: T2, TEAD1 (Homo sapiens, UniProt P28347); assay: GAL4-TEAD1 fusion / 5xGAL4-secNLUC reporter in HeLa cells; format: cell-based; details: 100 μM, 6 h
T2 construct: #18881 (FLAG-YAP); host or cells: HeLa
From the text: as §1, §2

[3] = target: T3, TEAD4 (Homo sapiens, UniProt Q15561); assay: GAL4-TEAD4 fusion / 5xGAL4-secNLUC reporter in HeLa cells; format: cell-based; details: 100 μM, 6 h
T3 construct: #18881 (FLAG-YAP); host or cells: HeLa
From the text: as §1, §2

[4] = test system: MCF7 cells; assay: EdU proliferation assay in MCF7 cells; format: cell-based, human; details: MCF7, YAP-TEAD-independent growth, 18 hours then 6 hours EdU
Protocol: Cell proliferation was measured using the Click-iT EdU 488 assay (Sigma-Aldrich). Briefly, the cells were treated with indicated concentrations of compounds for 24 h with the last 4 h being in the presence of 10 μM EdU. The cells were fixed in 4% formaldehyde and stained for EdU incorporation, following the kit’s standard protocol. The cells were counterstained with Hoechst 33342 nucleic acid for 20 min. Fluorescent images of at least three fields of view per well were counted using ImageJ software. Real-time analysis of cell migration was performed using an IncuCyte ZOOM live cell imaging system (Essen BioScience) according to the manufacturer’s instructions. Briefly, the cells were seeded (1.2 × 10^4 cells/well for HeLa cells, 1.5 × 10^4 cells/well for RaVSMCs, and 1 × 10^4 cells/well) into ImageLock 96-well plates. After 36 h, the cells were pretreated overnight with indicated concentrations of compounds. The wells were scratched using a WoundMaker tool, and the media were replaced containing test compounds. Phase contrast images of cell migration into the wounded area were acquired hourly for 24 h. Relative wound confluence was calculated using the Cell Migration Image analysis module of the IncuCyte ZOOM software. […]
MCF7 cells were incubated with the indicated concentrations of CPD3.1 (n=3). […] Edu incorporation in to newly synthesised DNA was detected using the Edu-Click detection kit. […]

[5] = test system: TEAD-independent minimal TNT1 gene promoter; assay: Minimal TNT1 promoter-luciferase (minP-LUC) reporter in RaVSMCs; format: cell-based, rat; details: 6 h
Protocol: Figure 3 Compound 3 inhibits TEAD target gene expression, cell proliferation, and cell migration. HeLa cells (A) and RaVSMCs (B) were transfected with CCN1-LUC, CTGF-LUC or minimal promoter-LUC (minP-LUC) reporter plasmids and treated with indicated concentrations of compound 3 for 6 h. Cell lysates were assayed for fire-fly luciferase activity (n = 3). HeLa cells (C) and RaVSMCs (D) were treated with indicated concentrations of compound 3 for 18 h, followed by a 6 h labeling with 10 μM EdU (n = 4). HeLa cells (E) and RaVSMCs (F) were treated with the indicated concentrations of compound 3 and migration quantified using a real-time IncuCyte scratch wound assay (n = 4). * = p < 0.05, ** = p < 0.01, *** = p < 0.001.
TNT1-minP reporter containing the Troponin-T minimal promoter was generated by digesting 8xGTIIC-luciferase plasmid (Addgene #34615) with Kpn1 and BglII to remove the TEAD elements, followed by blunt end re-ligation. A 2.177 kb fragment of the human CCN1 promoter containing two proximal TEAD elements (Hg19;chr1:86044316–chr1:86046493) was described previously[39] and cloned into pGL4-luciferase (Promega). The proximal promoter regions of the CTGF (Hg19;chr6:132272455–132272687) promoter, containing a consensus TEAD-binding element, was amplified by PCR from human genomic DNA and cloned into the Kpn1 and Nhe1 sites of pGL4-luciferase. […]

T3 sequence (Q15561 whole entry, the tested form may be a part): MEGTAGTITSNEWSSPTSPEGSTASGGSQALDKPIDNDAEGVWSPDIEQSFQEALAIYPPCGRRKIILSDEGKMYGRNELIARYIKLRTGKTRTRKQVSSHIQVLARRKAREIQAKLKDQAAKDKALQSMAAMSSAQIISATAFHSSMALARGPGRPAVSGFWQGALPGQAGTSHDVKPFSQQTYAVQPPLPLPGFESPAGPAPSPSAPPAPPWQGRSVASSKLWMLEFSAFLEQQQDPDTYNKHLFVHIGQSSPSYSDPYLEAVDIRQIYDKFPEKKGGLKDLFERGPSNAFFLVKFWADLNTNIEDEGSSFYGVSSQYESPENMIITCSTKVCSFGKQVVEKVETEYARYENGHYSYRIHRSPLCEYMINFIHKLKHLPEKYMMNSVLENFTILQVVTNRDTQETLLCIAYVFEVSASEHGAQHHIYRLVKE
T1 sequence (Q99594 whole entry, the tested form may be a part): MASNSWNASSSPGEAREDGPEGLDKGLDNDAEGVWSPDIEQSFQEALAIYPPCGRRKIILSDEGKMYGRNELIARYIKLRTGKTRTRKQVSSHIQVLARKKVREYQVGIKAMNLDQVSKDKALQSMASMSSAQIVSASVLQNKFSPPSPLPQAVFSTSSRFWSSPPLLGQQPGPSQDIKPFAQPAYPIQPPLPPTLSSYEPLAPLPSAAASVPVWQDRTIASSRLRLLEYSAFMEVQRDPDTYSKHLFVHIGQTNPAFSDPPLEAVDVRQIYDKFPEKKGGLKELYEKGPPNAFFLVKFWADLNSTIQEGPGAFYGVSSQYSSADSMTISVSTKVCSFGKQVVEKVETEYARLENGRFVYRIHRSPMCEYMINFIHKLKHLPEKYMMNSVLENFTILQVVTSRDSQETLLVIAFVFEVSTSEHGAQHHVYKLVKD
T2 sequence (P28347 whole entry, the tested form may be a part): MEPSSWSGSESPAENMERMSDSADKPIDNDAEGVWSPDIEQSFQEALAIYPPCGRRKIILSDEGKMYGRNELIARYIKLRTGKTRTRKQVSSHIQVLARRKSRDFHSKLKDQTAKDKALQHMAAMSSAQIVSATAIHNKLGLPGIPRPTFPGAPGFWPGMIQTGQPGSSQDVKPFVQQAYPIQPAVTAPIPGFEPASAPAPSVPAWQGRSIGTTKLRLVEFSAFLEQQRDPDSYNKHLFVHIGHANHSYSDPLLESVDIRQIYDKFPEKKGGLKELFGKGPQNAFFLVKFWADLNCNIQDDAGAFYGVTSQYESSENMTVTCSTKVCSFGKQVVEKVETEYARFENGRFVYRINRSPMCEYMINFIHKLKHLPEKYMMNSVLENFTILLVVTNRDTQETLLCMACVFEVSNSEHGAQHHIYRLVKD

| SMILES | basal activity of GAL4-TEAD3 [1] | YAP-stimulated activity of GAL4-TEAD3 ([1]; YAP overexpression) | basal activity of GAL4-TEAD1 [2] | YAP-stimulated activity of GAL4-TEAD1 ([2]; YAP overexpression) | basal activity of GAL4-TEAD4 [3] | YAP-stimulated activity of GAL4-TEAD4 ([3]; YAP overexpression) | proliferation of MCF7 cells (EdU) [4] | activity of TEAD-independent minimal TNT1 promoter (minP-LUC) [5] |
| --- | --- | --- | --- | --- | --- | --- | --- | --- |
| Cc1ccc2c(c1)c1c3n2CCNC3CCC1 (centres unmarked) [CPD3.1] | inhibited | significantly inhibited | inhibited | significantly inhibited | inhibited | significantly inhibited | did not inhibit the proliferation of MCF7 cells |  |
| Cc1ccc2c(c1)c1c3n2CCN(CC(O)CN2CCN(C(=O)c4ccco4)CC2)C3CCC1 (centres unmarked) [CPD3] |  |  |  |  |  |  |  | not inhibited by any concentration |
